Source: patent publication US7982057B2, “Compound of stemphones and production thereof” (The Kitasato Institute, priority 2006, dated 2011)
≈ marks a conversion by molar mass, not a printed value.

Assays:
Solubility in solvent = type: physicochemical
Jurkat cells = assay: Cytotoxicity on Jurkat cells by MTT method; type: cell-based; conditions: Homo sapiens, 48 hours
Description: Method for Evaluation of Cytotoxicity
Evaluation of cytotoxicity on Jurkat cells were performed by MTT method (Mosmaan, et al. J. Immunol. Methods, 65: 55-63, 1983). Cultured liquid of Jurkat cells were suspended in RPMI-1640 medium (Iwaki & Co., Ltd., Japan) to give suspension with 4×10^5 cells/ml, and the suspension 0.05 ml was seeded in each well of 96 well microplate (Corning Corp.). Subsequently, stemphone D substance, stemphone E substance, stemphone E1 substance, stemphone E2 substance, stemphone E3 substance or stemphone F substance (0.05 ml, 2% methanol/PRMI-1640 medium) was added and incubated at 37° C. for 48 hours in 5% carbon dioxide gas incubator. Then MTT reagent (SIGMA Inc.) dissolved in PBS to give concentration 5.5 mg/ml, 0.01 ml was added and reacted at 37° C. for 4 hours. After the reaction was performed, cell-lysing solution (40%, N-dimethylformamide (Kanto Chemical Co., Inc., Japan), 20% sodiumdodecyl sulfate (Wako Pure Chemical Industries, Ltd., Japan) 2% acetic acid (Kanto Chemical Co., Inc., Japan), 0.03% hydrochloric acid (Kanto Chemical Co., Inc., Japan) in purified water) 0.09 ml was added, and stirred at room temperature for 2 hours, then absorption at 550 nm was measured by using ELx 808 (BIO-TEK Instruments Inc.). As compared with stemphone C substance previously reported by the present inventor (ratio: 1.0), about 4-fold to 60-fold reduction of toxicity were confirmed.

[1] = tested on: methicillin resistant Staphylococcus aureus K24; assay: Enhancing effect for activity of imipenem by paper disk method; type: cell-based; conditions: 10 μg disc, 37° C. for 20 hours; for inhibitory zone in the presence of imipenem: MHA medium with imipenem final concentration 10 μg/ml; for inhibitory zone, substance alone: MHA medium without imipenem
Description: Biological properties of compound of stemphones of the present invention are described in detail as follows. Method for evaluation of enhancing effect for activity of imipenem by paper disk method
Clinically isolated strain of methicillin resistant Staphylococcus aureus K24 was used as a test organism. Staphylococcus aureus was cultured in Mueller-Hinton broth (2.1% w/v) (DIFCO) at 37° C. for 20 hours, and was suspended corresponding to 0.5 Mc FARLAND (about 10^8 CFU/ml) in the same medium.
Smearing was performed by using sterilized cotton swab (Kawamoto Sangyo K.K., Japan) according to a method of National Committee for Laboratory Standard, NCCLS, U.S.A. Antibacterial activities against test organism on various media were expressed with a unit in mm of a diameter of inhibition zone after incubation with the paper disc (thin disc, […], ADVANTEC Inc.) method at 37° C. for 20 hours.

Structure (SMILES)	Solubility in methanol and chloroform (Solubility in solvent)	Solubility in water (Solubility in solvent)	IC50 (Jurkat cells)	inhibitory zone in the presence of imipenem [1]	inhibitory zone, substance alone [1]
C/C=C(\C)C(OC(C)=O)C(C)C1=CC(=O)C2=C(OC3(C)CCC4OC(C(C)(C)O)CC(O)C4(C)C3C2)C1=O (stereo not drawn) [stemphone D substance]	Soluble	insoluble	1.8 µg/mL (≈ 3.39 µM)	25 mm	not observed
C/C=C(\C)C(OC(C)=O)C(C)c1cc(OC)c2c(c1O)OC1(C)CCC3OC(C(C)(C)O)CC(O)C3(C)C1C2O (stereo not drawn) [stemphone E1 substance]	Soluble	insoluble	26.2 µg/mL (≈ 46.6 µM)	15 mm	not observed
C/C=C(\C)C(OC(C)=O)C(C)c1cc(O)c2c(c1O)OC1(C)CCC3OC(C(C)(C)O)CC(O)C3(C)C1=C2 (stereo not drawn) [stemphone E2 substance]	Soluble	insoluble	4.4 µg/mL (≈ 8.29 µM)	22 mm	not observed
C/C=C(\C)C(OC(C)=O)C(C)C1=CC(=O)C2=C(OC3(C)CCC4OC(C(C)(C)O)CC(O)C4(C)C3=C2)C1=O (stereo not drawn) [stemphone E3 substance]	Soluble	insoluble	2.6 µg/mL (≈ 4.92 µM)	20 mm	not observed
C/C=C(\C)C(OC(C)=O)C(C)c1cc(O)c2c(c1O)OC1(C)CCC3OC(C(C)(C)O)CC(O)C3(C)C1C2O (stereo not drawn) [stemphone E substance]	Soluble	insoluble	3.6 µg/mL (≈ 6.56 µM)	22 mm	not observed
C/C=C(\C)C(OC(C)=O)C(C)C1=CC(=O)C2=C(OC3(C)CCC4OC(C(C)(C)O)CC(O)C4(C)C3C2O)C1(O)CC(C)=O (stereo not drawn) [stemphone F substance]	Soluble	insoluble	2.7 µg/mL (≈ 4.46 µM)	20 mm	not observed
